System: human peripheral blood mononuclear cells (CMSP)
Assay: Test on lymphocyte proliferation: human peripheral blood mononuclear cells (3H-thymidine incorporation), with or without rhIL-2
Format: cell-based
Conditions: 5 days; for Proliferation of human peripheral blood mononuclear cells, Con A 2 μg/ml (cpm ± DS) / Proliferation of human peripheral blood mononuclear cells, Medium (cpm ± DS) / Proliferation of human peripheral blood mononuclear cells, PHA 10 μg/ml (cpm ± DS) / Proliferation of human peripheral blood mononuclear cells, aCD3 5 μg/ml (cpm ± DS) / Proliferation of human peripheral blood mononuclear cells, aCD3 + Con A (cpm ± DS) / Proliferation of human peripheral blood mononuclear cells, aCD3 + PHA (cpm ± DS): no rhIL-2; for Proliferation of human peripheral blood mononuclear cells in the presence of rhIL-2, Con A 2 μg/ml (cpm ± DS) / Proliferation of human peripheral blood mononuclear cells in the presence of rhIL-2, Medium (cpm ± DS) / Proliferation of human peripheral blood mononuclear cells in the presence of rhIL-2, PHA 10 μg/ml (cpm ± DS) / Proliferation of human peripheral blood mononuclear cells in the presence of rhIL-2, aCD3 5 μg/ml (cpm ± DS) / Proliferation of human peripheral blood mononuclear cells in the presence of rhIL-2, aCD3 + Con A (cpm ± DS) / Proliferation of human peripheral blood mononuclear cells in the presence of rhIL-2, aCD3 + PHA (cpm ± DS): rhIL-2 100 UI/ml
Text: Tests on Human Peripheral Blood Mononuclear Cells Material and Methods:
In order to study more deeply the effects of lactone on cell proliferation, we checked whether the effects described in the above section on cells of murine origin were specific to the cell type and the species or whether, on the other hand, these effects were xeno-independent. For this, we purified human peripheral blood mononuclear cells from healthy controls and we proceeded to study the possible effects of inhibition on the proliferative activity of peripheral blood mononuclear cells (CMSP) from humans, induced by different mitogenic agents acting alone and/or in costimulation with other mitogens and in the presence or absence of recombinant human interleukin 2 (rhIL-2).
Mitogens: Phytohaemaglutinin M (PHA) (Difco Lab., Detroit, Mich., USA), Concanavalin A (Con A, 2 μg/ml, Sigma Chemical Co., Mich., USA), Immobilised anti-CD3 (OKT3, 5 μg/ml, Ortho-mune, Orthodiagnostic System) and rhIL-2 (100 IU/ml, Hoffman-La Roche, N.J., USA).
All the reagents included in these tests were diluted in RPMI 1640 culture medium (Whitaker Bioproducts, Walkersville, USA) supplemented with 10% of decomplemented foetal calf serum (Biochrom K G, Berlin), L-glutamin (2 mM, Biochrom K G), Hepes (25 mM, Biochrom K G) and antibiotic (1% penicillin streptomycin, Difco Lab, Detroit, Mich., USA).
Also, all the mitogens were optimised in a dose response way in order to obtaining the maximum proliferative response after 5 days of culture.
Venous blood: The CMSP were obtained from venous blood extracted by antecubital venous puncture. 50 ml of blood were extracted to which were added 50 U of calcic heparin and the mixture was diluted 1/1 (vol/vol) with PSS.
Human mononucleated cells: In order to isolate the CMSP they were proceeded to be separated from the rest of the blood components by means of the formation of a density gradient on Ficoll. The cells thus obtained are resuspended in PSS and centrifuged at 400×g for 10 minutes (washing process) and then resuspended in PSS. This operation is repeated three times. In the last of them, PSS is replaced with complete medium.
General culture conditions: All cell cultures were developed under conditions of sterility in a vertical laminar flow chamber, using single-use sterile materials or materials sterilised in an autoclave or with ethylene oxide. The cultures were conserved in a stove kept at a temperature of 37° C., in an atmosphere with 5% CO2 and relative humidity of 95%. In the various experiments performed, the purified CMSP cell preparations were incubated in sterile dishes with 96 wells at concentrations of 5×10^4 cells/well (200 μl) in the presence of different concentrations of different mitogens for 5 days.
The method used for quantifying the cell proliferation was analysis of the incorporation of ^3H-thymidine (^3H-T) into DNA synthesised de novo, detecting the emission of β radiation from the dry extracts of cell cultures to which the tritiated base had been added before its finalisation and collection. The synthesis of DNA was done in triplicate on sterile dishes with 96 flat-bottom wells.
From 20 to 24 hour prior to terminating the cell culture, 1 μCi of ^3H-T was added to each well containing medium; the cultures were gathered by suction through a glass filter, using a Skatron culture collector for this.
The synthesis of DNA has been expressed in counts per minute (cpm). Each test was conducted in triplicate, with those data having a variability greater than 10% compared to the mean of the triplicate being rejected, since they could indicate a technical error or contamination in the culture. The cultures were carried out at a constant cell volume per well, as well as at a constant volume of 200 μl.
Negative Control: Cells in the Presence of Complete Culture Medium
Positive Control: Stimulation of Cells without the Presence of Lactone […]

**Q.** Which “Proliferation of human peripheral blood mononuclear cells, Con A 2 μg/ml (cpm ± DS)” value (Lactone 0.0001 μg/ml) does the source give for `C=C1C(=O)OC(CCc2ccc(OC)cc2)C1C` (stereo not drawn) [lactone] here?
**A.** 75329 ± 9144 cpm

**Q.** And the “Proliferation of human peripheral blood mononuclear cells, Medium (cpm ± DS)” value (Lactone 0.0001 μg/ml)?
**A.** 3175 ± 1574 cpm

**Q.** What about the “Proliferation of human peripheral blood mononuclear cells, PHA 10 μg/ml (cpm ± DS)” value (Lactone 0.0001 μg/ml) of the same compound?
**A.** 76612 ± 15020 cpm

**Q.** What about the “Proliferation of human peripheral blood mononuclear cells, aCD3 5 μg/ml (cpm ± DS)” value (Lactone 0.0001 μg/ml) of the same compound?
**A.** 44721 ± 4082 cpm

**Q.** What about the “Proliferation of human peripheral blood mononuclear cells, aCD3 + Con A (cpm ± DS)” value (Lactone 0.0001 μg/ml) of the same compound?
**A.** 115090 ± 4133 cpm

**Q.** And the “Proliferation of human peripheral blood mononuclear cells, aCD3 + PHA (cpm ± DS)” value (Lactone 0.0001 μg/ml)?
**A.** 105395 ± 375 cpm

**Q.** And the “Proliferation of human peripheral blood mononuclear cells in the presence of rhIL-2, Con A 2 μg/ml (cpm ± DS)” value (Lactone 0.0001 μg/ml)?
**A.** 96972 ± 18274 cpm

**Q.** What about the “Proliferation of human peripheral blood mononuclear cells in the presence of rhIL-2, Medium (cpm ± DS)” value (shortened to “Proliferation … of rhIL-2, Medium (cpm ± DS)”) (Lactone 0.0001 μg/ml) of the same compound?
**A.** 56451 ± 4965 cpm

**Q.** And the “Proliferation of human peripheral blood mononuclear cells in the presence of rhIL-2, PHA 10 μg/ml (cpm ± DS)” value (Lactone 0.0001 μg/ml)?
**A.** 130524 ± 8929 cpm

**Q.** And the “Proliferation of human peripheral blood mononuclear cells in the presence of rhIL-2, aCD3 5 μg/ml (cpm ± DS)” value (Lactone 0.0001 μg/ml)?
**A.** 87091 ± 7078 cpm

**Q.** What about the “Proliferation of human peripheral blood mononuclear cells in the presence of rhIL-2, aCD3 + Con A (cpm ± DS)” value (Lactone 0.0001 μg/ml) of the same compound?
**A.** 154981 ± 15723 cpm

**Q.** And the “Proliferation of human peripheral blood mononuclear cells in the presence of rhIL-2, aCD3 + PHA (cpm ± DS)” value (from here on “Proliferation … of rhIL-2, aCD3 + PHA (cpm ± DS)”) (Lactone 0.0001 μg/ml)?
**A.** 133621 ± 12440 cpm

**Q.** What about the “Proliferation of human peripheral blood mononuclear cells, Con A 2 μg/ml (cpm ± DS)” value (Lactone 0.01 μg/ml) of the same compound?
**A.** 55503 ± 9023 cpm

**Q.** And the “Proliferation of human peripheral blood mononuclear cells, Medium (cpm ± DS)” value (Lactone 0.01 μg/ml)?
**A.** 2867 ± 1527 cpm

**Q.** And the “Proliferation of human peripheral blood mononuclear cells, PHA 10 μg/ml (cpm ± DS)” value (Lactone 0.01 μg/ml)?
**A.** 71092 ± 3555 cpm

**Q.** And the “Proliferation of human peripheral blood mononuclear cells, aCD3 5 μg/ml (cpm ± DS)” value (Lactone 0.01 μg/ml)?
**A.** 40378 ± 219 cpm

**Q.** What about the “Proliferation of human peripheral blood mononuclear cells, aCD3 + Con A (cpm ± DS)” value (Lactone 0.01 μg/ml) of the same compound?
**A.** 93139 ± 3070 cpm

**Q.** And the “Proliferation of human peripheral blood mononuclear cells, aCD3 + PHA (cpm ± DS)” value (Lactone 0.01 μg/ml)?
**A.** 67011 ± 8270 cpm

**Q.** And the “Proliferation of human peripheral blood mononuclear cells in the presence of rhIL-2, Con A 2 μg/ml (cpm ± DS)” value (Lactone 0.01 μg/ml)?
**A.** 54196 ± 80 cpm

**Q.** And the “Proliferation … of rhIL-2, Medium (cpm ± DS)” value (Lactone 0.01 μg/ml)?
**A.** 42568 ± 8631 cpm

**Q.** And the “Proliferation of human peripheral blood mononuclear cells in the presence of rhIL-2, PHA 10 μg/ml (cpm ± DS)” value (Lactone 0.01 μg/ml)?
**A.** 106754 ± 698 cpm

**Q.** What about the “Proliferation of human peripheral blood mononuclear cells in the presence of rhIL-2, aCD3 5 μg/ml (cpm ± DS)” value (Lactone 0.01 μg/ml) of the same compound?
**A.** 39771 ± 3258 cpm

**Q.** And the “Proliferation of human peripheral blood mononuclear cells in the presence of rhIL-2, aCD3 + Con A (cpm ± DS)” value (Lactone 0.01 μg/ml)?
**A.** 130949 ± 16623 cpm

**Q.** What about the “Proliferation … of rhIL-2, aCD3 + PHA (cpm ± DS)” value (Lactone 0.01 μg/ml) of the same compound?
**A.** 94165 ± 15647 cpm

**Q.** And the “Proliferation of human peripheral blood mononuclear cells, Con A 2 μg/ml (cpm ± DS)” value (Lactone 1 μg/ml)?
**A.** 13294 ± 3395 cpm

**Q.** And the “Proliferation of human peripheral blood mononuclear cells, Medium (cpm ± DS)” value (Lactone 1 μg/ml)?
**A.** 1805 ± 1870 cpm

**Q.** What about the “Proliferation of human peripheral blood mononuclear cells, PHA 10 μg/ml (cpm ± DS)” value (Lactone 1 μg/ml) of the same compound?
**A.** 25118 ± 6642 cpm

**Q.** What about the “Proliferation of human peripheral blood mononuclear cells, aCD3 5 μg/ml (cpm ± DS)” value (Lactone 1 μg/ml) of the same compound?
**A.** 1286 ± 255 cpm

**Q.** What about the “Proliferation of human peripheral blood mononuclear cells, aCD3 + Con A (cpm ± DS)” value (Lactone 1 μg/ml) of the same compound?
**A.** 829 ± 484 cpm

**Q.** And the “Proliferation of human peripheral blood mononuclear cells, aCD3 + PHA (cpm ± DS)” value (Lactone 1 μg/ml)?
**A.** 8689 ± 5361 cpm

**Q.** What about the “Proliferation of human peripheral blood mononuclear cells in the presence of rhIL-2, Con A 2 μg/ml (cpm ± DS)” value (Lactone 1 μg/ml) of the same compound?
**A.** 71210 ± 5211 cpm

**Q.** What about the “Proliferation … of rhIL-2, Medium (cpm ± DS)” value (Lactone 1 μg/ml) of the same compound?
**A.** 9548 ± 808 cpm

**Q.** What about the “Proliferation of human peripheral blood mononuclear cells in the presence of rhIL-2, PHA 10 μg/ml (cpm ± DS)” value (Lactone 1 μg/ml) of the same compound?
**A.** 110507 ± 698 cpm

**Q.** And the “Proliferation of human peripheral blood mononuclear cells in the presence of rhIL-2, aCD3 5 μg/ml (cpm ± DS)” value (Lactone 1 μg/ml)?
**A.** 36280 ± 77 cpm

**Q.** And the “Proliferation of human peripheral blood mononuclear cells in the presence of rhIL-2, aCD3 + Con A (cpm ± DS)” value (Lactone 1 μg/ml)?
**A.** 66429 ± 9241 cpm

**Q.** What about the “Proliferation … of rhIL-2, aCD3 + PHA (cpm ± DS)” value (Lactone 1 μg/ml) of the same compound?
**A.** 88220 ± 3174 cpm
